From patent US20240316023A1, “BENEDIN, PIPERIDINE, 2-BENZHYDRYL-3-HYDROXY-N-METHYL-, HYDROCHLORIDE AND DERIVATIVES THEREOF FOR USE IN TREATING KLEINE-LEVIN SYNDROME” (priority 2021, published 2024) come the findings set out here.

For this test, the target named is T1, RXFP3 (h) (agonist radioligand) (Homo sapiens, UniProt Q9NSD7).
T1 sequence (Q9NSD7 1-469): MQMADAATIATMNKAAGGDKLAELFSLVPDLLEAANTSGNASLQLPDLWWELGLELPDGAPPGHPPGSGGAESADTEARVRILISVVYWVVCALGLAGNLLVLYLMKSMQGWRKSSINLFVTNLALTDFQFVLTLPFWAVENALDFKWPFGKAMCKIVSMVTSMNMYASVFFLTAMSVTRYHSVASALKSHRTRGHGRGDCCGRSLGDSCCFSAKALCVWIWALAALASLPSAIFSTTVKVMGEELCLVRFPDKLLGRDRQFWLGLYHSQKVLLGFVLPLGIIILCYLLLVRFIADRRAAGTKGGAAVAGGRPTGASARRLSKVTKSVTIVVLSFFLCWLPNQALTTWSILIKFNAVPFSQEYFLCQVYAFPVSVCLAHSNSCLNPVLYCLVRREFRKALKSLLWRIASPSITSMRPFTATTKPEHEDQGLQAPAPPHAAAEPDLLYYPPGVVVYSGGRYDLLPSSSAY
Nature of the test: GPCR Biosensor cAMP Hunter assay, RXFP3. Format: cell-based. As for the experimental part: Benedin is found to weakly bind with RXFP4 and RXFP3 receptors (Study FR095-0024749-Q Eurofins/leadHunter Jun. 25, 2021; unpublished data) (Table 2).
In these assays' compounds were tested in agonist and antagonist mode with the GPCR Biosensor Assays and match to this design:
1. cAMP Hunter cell lines were expanded from freezer stocks according to standard procedures.
2. Cells were seeded in a total volume of 20 μL into white walled, 384-well microplates and incubated at 37° C. for the appropriate time prior to testing.
3. cAMP modulation was determined using the DiscoverX HitHunter CAMP XS+assay.
1. For agonist determination, cells were incubated with sample in the presence of EC80 forskolin to induce response.
2. Media was aspirated from cells and replaced with 15 μL 2:1 HBSS/10 mM Hepes: CAMP XS+Ab reagent. […]
2. Microplates were read following signal generation with a PerkinElmer Envision™ instrument for chemiluminescent signal detection.
5. For Gi agonist mode assays, percentage activity is calculated using the following formula: % Activity=100%×(1−(mean RLU of test sample-mean RLU of MAX control)/(mean RLU of vehicle control−mean RLU of MAX control)).
8. For Gi antagonist or negative allosteric mode assays, percentage inhibition is calculated using the following formula: % Inhibition=100%×(mean RLU of test sample−mean RLU of EC80 control)/(mean RLU of forskolin positive control−mean RLU of […]

Take `CN1CCCC(O)C1C(c1ccccc1)c1ccccc1` (centres unmarked) [Benedin, 2-benzhydryl-3-hydroxy-N-methyl-piperidine]: the “% Inhibition at 10^−5M Benedin” value was “weakly bind”. The inhibition (as a rule, the percentage by which the read-out fell short of the control) at 10 µM (10^−5 M, read-out: % Inhibition at 10^−5M Benedin) was 21.4%.
